Experimental data reported in patent publication US20230374038A1, “MODULATORS OF CYSTIC FIBROSIS TRANSMEMBRANE CONDUCTANCE REGULATOR” (VERTEX PHARMACEUTICALS INCORPORATED, priority 2020, published 2023).
Read-outs that look alike come from different tables or passages of the source.

Assays:
[1] = amide bond, 13-membered ring, DMF
CFTR [2] = target: T1, CFTR (Homo sapiens, UniProt P13569, DEL508-508); test: HBE2 Assay: Ussing chamber assay of CFTR-mediated short-circuit currents in F508del/MF-HBE cells with 44 nM (6R,12R)-17-amino-12-methyl-6,15-bis(trifluoromethyl)-13,19-dioxa-3,4,18-triazatricyclo[12.3.1.12,5]nonadeca-1(18),2,4,14,16-pentaen-6-ol; format: cell-based; settings: 3 μM with 44 nM (6R,12R)-17-amino-12-methyl-6,15-bis(trifluoromethyl)-13,19-dioxa-3,4,18-triazatricyclo[12.3.1.12,5]nonadeca-1(18),2,4,14,16-pentaen-6-ol, 18-24 hours, 20% human serum
T1 construct: endogenous in cells; host or cells: primary human bronchial epithelial cells, F508del/MF genotype
T1 sequence (P13569 with tags, fused parts or gaps DEL508-508): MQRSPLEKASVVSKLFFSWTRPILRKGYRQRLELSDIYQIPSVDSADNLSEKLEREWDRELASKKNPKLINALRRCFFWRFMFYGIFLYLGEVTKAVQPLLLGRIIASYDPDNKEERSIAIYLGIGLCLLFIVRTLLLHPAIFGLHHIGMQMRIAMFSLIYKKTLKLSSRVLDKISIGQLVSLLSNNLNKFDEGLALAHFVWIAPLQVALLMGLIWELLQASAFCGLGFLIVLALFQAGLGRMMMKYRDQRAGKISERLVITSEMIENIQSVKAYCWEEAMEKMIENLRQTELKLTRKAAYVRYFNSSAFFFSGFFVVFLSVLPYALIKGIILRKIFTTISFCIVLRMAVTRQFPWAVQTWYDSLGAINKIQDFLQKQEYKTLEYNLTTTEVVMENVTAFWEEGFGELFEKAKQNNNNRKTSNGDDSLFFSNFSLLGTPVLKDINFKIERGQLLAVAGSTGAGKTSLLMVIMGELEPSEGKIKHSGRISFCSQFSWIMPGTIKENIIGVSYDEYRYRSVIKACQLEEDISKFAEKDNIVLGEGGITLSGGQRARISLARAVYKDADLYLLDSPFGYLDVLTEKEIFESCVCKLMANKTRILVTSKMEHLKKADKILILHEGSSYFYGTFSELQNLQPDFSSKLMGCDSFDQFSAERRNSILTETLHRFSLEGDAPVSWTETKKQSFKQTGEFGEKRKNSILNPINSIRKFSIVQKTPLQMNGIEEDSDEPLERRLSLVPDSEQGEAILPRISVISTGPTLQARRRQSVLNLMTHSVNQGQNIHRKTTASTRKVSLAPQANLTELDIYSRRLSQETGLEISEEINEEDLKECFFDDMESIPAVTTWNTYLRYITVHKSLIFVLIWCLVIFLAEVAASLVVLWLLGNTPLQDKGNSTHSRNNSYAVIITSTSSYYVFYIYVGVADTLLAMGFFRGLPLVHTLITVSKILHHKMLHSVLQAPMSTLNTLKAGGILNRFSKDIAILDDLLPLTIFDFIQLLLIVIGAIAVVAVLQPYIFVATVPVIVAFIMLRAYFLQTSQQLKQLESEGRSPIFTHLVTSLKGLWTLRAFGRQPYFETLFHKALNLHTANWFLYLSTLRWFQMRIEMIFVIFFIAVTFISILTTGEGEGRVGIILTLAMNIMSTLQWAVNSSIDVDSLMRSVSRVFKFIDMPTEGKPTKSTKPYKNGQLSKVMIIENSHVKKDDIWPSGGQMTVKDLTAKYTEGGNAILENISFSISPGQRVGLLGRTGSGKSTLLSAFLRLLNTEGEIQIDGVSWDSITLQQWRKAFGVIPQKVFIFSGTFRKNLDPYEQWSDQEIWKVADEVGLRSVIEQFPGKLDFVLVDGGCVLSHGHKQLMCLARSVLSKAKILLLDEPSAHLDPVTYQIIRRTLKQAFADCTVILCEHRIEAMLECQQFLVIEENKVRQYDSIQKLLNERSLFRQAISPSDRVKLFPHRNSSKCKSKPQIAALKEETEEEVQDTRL
Description: Ussing chamber experiments were performed using human bronchial epithelial (HBE) cells derived from CF subjects heterozygous for F508del and a minimal function CFTR mutation (F508del/MF-HBE) and cultured as previously described (Neuberger T, Burton B, Clark H, Van Goor F Methods Mol Biol 2011:741:39-54). After four days the apical media was removed, and the cells were grown at an air liquid interface for >14 days prior to use.
To isolate the CFTR-mediated short-circuit (ISC) current, F508del/MF-HBE grown on Costar® Snapwell™ cell culture inserts were mounted in an Ussing chamber and the transepithelial ISC was measured under voltage-clamp recording conditions (Vhold=0 mV) at 37° C. The basolateral solution contained (in mM) 145 NaCl, 0.83 K2HPO4, 3.3 KH2PO4, 1.2 MgCl2, 1.2 CaCl2), 10 Glucose, 10 HEPES (pH adjusted to 7.4 with NaOH) and the apical solution contained (in mM) 145 NaGluconate, 1.2 MgCl2, 1.2 CaCl2), 10 glucose, 10 HEPES (pH adjusted to 7.4 with NaOH) and 30 μM amiloride to block the epithelial sodium channel. Forskolin (20 μM) was added to the apical surface to activate CFTR, followed by apical addition of a CFTR inhibitor cocktail consisting of BPO, GlyH-101, and CFTR inhibitor 172 (each at 20 μM final assay concentration) to specifically isolate CFTR currents. The CFTR-mediated ISC (μA/cm^2) for each condition was determined from the peak forskolin response to the steady-state current following inhibition.
The activity of the CFTR corrector compounds on the CFTR-mediated ISC was determined in Ussing chamber studies as described above. The F508del/MF-HBE cell cultures were either incubated with the corrector compounds at a range of concentrations in combination with 44 nM (6R,12R)-17-amino-12-methyl-6,15-bis(trifluoromethyl)-13,19-dioxa-3,4,18-triazatricyclo[12.3.1.12,5]nonadeca-1(18),2,4,14,16-pentaen-6-ol or were incubated with the corrector compounds at a single fixed concentration of 1 and 3 μM in combination with 44 nM (6R,12R)-17-amino-12-methyl-6,15-bis(trifluoromethyl)-13,19-dioxa-3,4,18-triazatricyclo[12.3.1.12,5]nonadeca-1(18),2,4,14,16-pentaen-6-ol for 18-24 hours at 37° C. and in the presence of 20% human serum. The concentration of corrector compounds with 44 nM (6R,12R)-17-amino-12-methyl-6,15-bis(trifluoromethyl)-13,19-dioxa-3,4,18-triazatricyclo[12.3.1.12,5]nonadeca-1(18),2,4,14,16-pentaen-6-ol during the 18-24 hours incubations was kept constant throughout the Ussing chamber measurement of the CFTR-mediated ISC to ensure compounds were present throughout the entire experiment.

CFTR [3] = target: CFTR (Homo sapiens, UniProt P13569); test: Membrane Potential Dye, Enteroid Assay A; format: cell-based; settings: for EC50: read-out: Ent. A EC50
Sequence of CFTR (Homo sapiens, UniProt P13569) (P13569 with tags, fused parts or gaps DEL508-508): as above

F508del = target: T2, F508del (Homo sapiens, UniProt P13569, DEL508-508); test: 3T3 Assay: membrane potential optical assay for F508del correctors in NIH 3T3 cells; format: cell-based; settings: for EC50: F508del corrector assay; for Emax: NIH3T3, F508del corrector assay, read-out: 3T3 Max Activity
T2 construct: expressed in transfected cells; host or cells: NIH3T3 mouse fibroblasts
T2 sequence (P13569 with tags, fused parts or gaps DEL508-508): as above
Source text: The assay utilizes fluorescent voltage sensing dyes to measure changes in membrane potential using a fluorescent plate reader (e.g., FLIPR III, Molecular Devices, Inc.) as a readout for increase in functional F508del in NIH 3T3 cells. The driving force for the response is the creation of a chloride ion gradient in conjunction with channel activation by a single liquid addition step after the cells have previously been treated with compounds and subsequently loaded with a voltage sensing dye.
To identify correctors of F508del, a single-addition HTS assay format was developed. This HTS assay utilizes fluorescent voltage sensing dyes to measure changes in membrane potential on the FLIPR III as a measurement for increase in gating (conductance) of F508del in F508del NIH 3T3 cells. The F508del NIH 3T3 cell cultures were incubated with the corrector compounds at a range of concentrations for 18-24 hours at 37° C., and subsequently loaded with a redistribution dye. The driving force for the response is a Cl^− ion gradient in conjunction with channel activation with forskolin in a single liquid addition step using a fluorescent plate reader such as FLIPR III.
Bath Solution #1: (in mM) NaCl 160, KCl 4.5, CaCl2) 2, MgCl2 1, HEPES 10, pH 7.4 with NaOH.
Chloride-free bath solution: Chloride salts in Bath Solution #1 (above) are substituted with gluconate salts.
NIH3T3 mouse fibroblasts stably expressing F508del are used for optical measurements of membrane potential. The cells are maintained at 37° C. in 5% CO2 and 90% humidity in Dulbecco's modified Eagle's medium supplemented with 2 mM glutamine, 10% fetal bovine serum, 1×NEAA, b-ME, 1× pen/strep, and 25 mM HEPES in 175 cm^2 culture flasks. For all optical assays, the cells were seeded at ˜20,000/well in 384-well matrigel-coated plates. For the correction assays, the cells are cultured at 37° C. with and without compounds for 16-24 hours.

Compound	HBE2 Activity at 3 μM (%) (CFTR [2])	further results
Cc1cccc(C)c1-c1nc2nc(c1C)OC[C@@H](CC(C)C)N(C1CC3(CCN(C(=O)OC(C)(C)C)CC3)C1)C(=O)c1cccc(c1)S(=O)(=O)N2		ring closure, isolated yield ([1]; from Cc1cccc(C)c1-c1nc(NS(=O)(=O)c2cccc(C(=O)O)c2)nc(OC[C@@H](CC(C)C)NC2CC3(CCN(C(=O)OC(C)(C)C)CC3)C2)c1C, HATU/DIEA, 9.1 mM, 3.0 h, 2 steps): 46%
Cc1cccc(C)c1-c1nc2nc(c1F)OC[C@@H](CCC(C)(C)C)N(Cc1cncc(N3CCC[C@H]3C)n1)C(=O)c1cccc(c1)S(=O)(=O)N2 [Compound 366]	+++ (+++ is >60%)	
CC(C)=Cc1c(N2C(=O)c3cccc(c3)S(=O)(=O)Nc3nc(c(C)c(-c4c(C)cccc4C)n3)OC[C@H]2CC(C)(C)C)cnn1C [Compound 361, (11R)-6-(2,6-Dimethylphenyl)-11-(2,2-dimethylpropyl)-7-methyl-12-[1-methyl-5-(2-methylprop-1-enyl)pyrazol-4-yl]-2,2-dioxo-9-oxa-2λ^6-thia-3,5,12,19-tetrazatricyclo[12.3.1.14,8]nonadeca-1(18),4(19),5,7,14,16-hexaen-13-one]	+++ (+++ is >60%)	
Cc1cccc(C)c1-c1nc2nc(c1Br)O[C@H](C)CNC(=O)c1cccc(c1)S(=O)(=O)N2		ring closure, isolated yield ([1]; from Cc1cccc(C)c1-c1nc(NS(=O)(=O)c2cccc(C(=O)O)c2)nc(O[C@H](C)CN)c1Br, HATU/HOBt/DIEA, 31.1 mM, 0.42 h): 54%
Cc1cccc(C)c1-c1nc2nc(c1C)OC[C@@H](CC(C)(C)C)N(Cc1cncc(N(C)C3CCC3)n1)C(=O)c1cccc(c1)S(=O)(=O)N2 [Compound 359]	+++ (+++ is >60%)	
Cc1cccc(CC(C)C)c1-c1nc2nc(c1C)OC[C@@H](CC(C)(C)C)N(Cc1cncc(N(C)C3CCC3)n1)C(=O)c1cccc(c1)S(=O)(=O)N2 (atropisomer, axis not shown) [Compound 357]	+++ (+++ is >60%)	
Cc1cccc(C)c1-c1nc2nc(c1F)OC[C@@H](CCC(C)(C)C)N(Cc1cnc3cc(C(C)C)n(C)c3n1)C(=O)c1cccc(c1)S(=O)(=O)N2 [Compound 368]	+++ (+++ is >60%)	
Cc1cccc(C)c1-c1nc2nc(c1F)OC[C@@H](CCC(C)(C)C)N(Cc1cncc(N3CCCC[C@H]3C)n1)C(=O)c1cccc(c1)S(=O)(=O)N2 [Compound 367]	+++ (+++ is >60%)	
Cc1cccc(C)c1-c1nc2nc(c1C)OC[C@@H](CC(C)C)N(Cc1cncc(N(C)C3CCC3)n1)C(=O)c1cccc(c1)S(=O)(=O)N2 [Compound 358]	+++ (+++ is >60%)	
Cc1cccc(C)c1-c1nc2cc(c1C(F)(F)F)OC[C@@H](CC(C)(C)C)N(Cc1cncc(N(C)C3CCC3)n1)C(=O)c1cccc(c1)S(=O)(=O)N2 [Compound 363, (11R)-12-[[6-[Cyclobutyl(methyl)amino]pyrazin-2-yl]methyl]-6-(2,6-dimethylphenyl)-11-(2,2-dimethylpropyl)-2,2-dioxo-7-(trifluoromethyl)-9-oxa-2λ^6-thia-3,5,12-triazatricyclo[12.3.1.14,8]nonadeca-1(18),4(19),5,7,14,16-hexaen-13-one]	+++ (+++ is >60%)	
Cc1cccc(CC2CCCCC2)c1-c1nc2nc(c1C)OC[C@@H](CC(C)(C)C)N(Cc1cncc(N(C)C3CCC3)n1)C(=O)c1cccc(c1)S(=O)(=O)N2 [Compound 360]	+++ (+++ is >60%)	
Cc1cccc(C)c1-c1nc2nc(c1F)OC[C@@H](CCC(C)(C)C)N(Cc1cncc(N(C)C3CCC3)n1)C(=O)c1cccc(c1)S(=O)(=O)N2 [Compound 365]	+++ (+++ is >60%)	
CCc1c2nc(nc1-c1ccccc1OCC(C)C)NS(=O)(=O)c1cccc(c1)NC(=O)c1cccc(c1)O2 [Compound 26]		Ent. A Max Activity (CFTR [3]): + (+ is <30%); EC50 (CFTR [3]): 1000 to 3000 nM; EC50 (F508del): < 1000 nM; Emax (F508del): > 60%
CCc1c2nc(nc1-c1ccccc1CC(C)C)NS(=O)(=O)c1cccc(c1)NC(=O)c1cccc(c1)O2 [Compound 3, 4-Ethyl-5-(2-isobutylphenyl)-9,9-dioxo-2-oxa-9λ^6-thia-6,8,15,23-tetrazatetracyclo[15.3.1.13,7.110,14]tricosa-1(21),3,5,7(23),10,12,14(22),17,19-nonaen-16-one]		Ent. A Max Activity (CFTR [3]): +++ (+++ is >60%); EC50 (CFTR [3]): < 1000 nM; EC50 (F508del): < 1000 nM; Emax (F508del): > 60%

The next lines start with results.

HBE2 Activity at 3 μM (%) (CFTR [2])	Compound	further results
+++ (+++ is >60%)	Cc1cccc(CCC(C)C)c1-c1nc2nc(c1C)OC[C@@H](CC(C)(C)C)N(Cc1ncc(OC(C)C)cn1)C(=O)c1cccc(c1)S(=O)(=O)N2 (atropisomer, axis not shown; (M)) [Compound 333, (5M,11R)-11-(2,2-Dimethylpropyl)-7-methyl-6-[2-methyl-6-(3-methylbutyl)phenyl]-12-{[5-(propan-2-yloxy)pyrimidin-2-yl]methyl}-9-oxa-2λ^6-thia-3,5,12,19-tetraazatricyclo[12.3.1.14,8]nonadeca-1(17),4(19),5,7,14(18),15-hexaene-2,2,13-trione]	
+++ (+++ is >60%)	Cc1cccc(C)c1-c1nc2nc(c1C)OC[C@@H](CC(C)(C)C)N(c1cnn(C)c1CC(C)C)C(=O)c1cccc(c1)S(=O)(=O)N2 [Compound 364, (11R)-6-(2,6-Dimethylphenyl)-11-(2,2-dimethylpropyl)-12-(5-isobutyl-1-methyl-pyrazol-4-yl)-7-methyl-2,2-dioxo-9-oxa-2λ^6-thia-3,5,12,19-tetrazatricyclo[12.3.1.14,8]nonadeca-1(18),4(19),5,7,14,16-hexaen-13-one]	
+++ (+++ is >60%)	Cc1cccc(C)c1-c1nc2nc(c1F)OC[C@@H](CCC(C)(C)C)N(Cc1ncc(OC(C)C)cn1)C(=O)c1cccc(c1)S(=O)(=O)N2 [Compound 369]	
+++ (+++ is >60%)	Cc1cccc(OC(C)C)c1-c1nc2nc(c1C)OC[C@@H](CC(C)(C)C)N(Cc1ncc(N3CCC(C)(C)C3)cn1)C(=O)c1cccc(c1)S(=O)(=O)N2 (atropisomer, axis not shown) [Compound 356]	
+++ (+++ is >60%)	Cc1cccc(CCC(C)C)c1-c1nc2nc(c1C)OC[C@@H](CC(C)(C)C)N(Cc1ncc(OC(C)C)cn1)C(=O)c1cccc(c1)S(=O)(=O)N2 (atropisomer, axis not shown; (P)) [Compound 334, (5P,11R)-11-(2,2-Dimethylpropyl)-7-methyl-6-[2-methyl-6-(3-methylbutyl)phenyl]-12-{[5-(propan-2-yloxy)pyrimidin-2-yl]methyl}-9-oxa-2λ^6-thia-3,5,12,19-tetraazatricyclo[12.3.1.14,8]nonadeca-1(17),4(19),5,7,14(18),15-hexaene-2,2,13-trione]	
